Results published in paper PMC3216299 (Bioorganic & medicinal chemistry, 2011).

Assays:
[1] = tested on: tubulin; test: Tubulin polymerization inhibition; format: biochemical, mammalian; conditions: 100 μM
[2] = tested on: Mtb H37Rv; test: Mtb H37Rv growth inhibition; format: cell-based, Mycobacterium tuberculosis

SMILES | Tubulin Polymerization inhibition [1] | IC90 (H37Rv) fold less active than lead compound 2 [2] | IC90 ([2]; Mycobacterium tuberculosis, H37RV, read-out: Mtb H37Rv IC90, extrapolated from 10 point dose response curve)
CCOC(=O)Nc1nc(NC(C)CCCN(CC)CC)c2nc(-c3ccccc3)c(-c3ccccc3)nc2n1 (centres unmarked) [Compound 2, reference compound] | 24% inhibition 100 μM |  | 
CCOC(=O)Nc1cc(NCCCCN(CC)CC)c2nc(-c3ccccc3)c(-c3ccccc3)nc2n1 [Compound 17, Ethyl (8-((4-(diethylamino)butyl)amino)-2,3-diphenylpyrido[2,3-b]pyrazin-6-yl)carbamate] | 40% inhibition 100 μM |  | 
CCOC(=O)Nc1nc(NC(C)CCCN(CC)CC)c2c(n1)SC(c1ccccc1)C(c1ccccc1)=N2 (centres unmarked) [Compound 37, Ethyl (4-((5-(diethylamino)pentan-2-yl)amino)-6,7-diphenyl-7H-pyrimido[4,5-b][1,4]thiazin-2-yl) carbamate] |  | 10 fold | 
CCOC(=O)Nc1nc(NCCCCN(CC)CC)c2c(n1)SC(c1ccccc1)C(c1ccccc1)=N2 (centres unmarked) [Compound 38, Ethyl (4-((4-(diethylamino)butyl)amino)-6,7-diphenyl-7H-pyrimido[4,5-b][1,4]thiazin-2-yl)carbamate] |  | 10 fold | 18.5 µM
